According to patent US9938258B2 (Karyopharm Therapeutics Inc., priority 2012, dated 2018):
Read-outs that look alike come from different tables or passages of the source.

How the values were obtained:
Z138 cells = experiment: MTT cell proliferation assay, Z138; assay type: cell-based; details: Homo sapiens
How it was run: (§1)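 Read-out: MTT reduction to formazan, solubilised and measured at 490 nm after ~4 h with MTT; inhibition (%) = (1-(ODo/OD))×100 relative to negative control. Seeding was 5,000-10,000 cells/well with overnight attachment. Eight test concentrations spanned 1 nM-30 μM; mostly duplicate, mean ± SE.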

3T3 cells = experiment: MTT cell proliferation assay, 3T3; assay type: cell-based, mouse; details: Mus musculus
How it was run: as §1

MS751 cells = experiment: MTT cell proliferation assay, MS751; assay type: cell-based, human; details: Homo sapiens
How it was run: as §1

[1] = Z-138, Z138 cells, approximately 64-72 hours incubation, read-out: MTT Assay IC50, Z138
[2] = NIH3T3, 3T3 cells, approximately 64-72 hours incubation, read-out: MTT Assay IC50, 3T3
[3] = MS751, MS751 cells, approximately 64-72 hours incubation, read-out: MTT Assay IC50, MS751
[4] = Z-138, read-out: MTT Assay IC50, Z138
[5] = NIH3T3, read-out: MTT Assay IC50, 3T3
[6] = MS751, read-out: MTT Assay IC50, MS751

SMILES	IC50 (Z138 cells; [1]) [µM]	IC50 (3T3 cells; [2]) [µM]	IC50 (MS751 cells; [3]) [µM]	IC50 (Z138 cells; [4]) [µM]	IC50 (3T3 cells; [5]) [µM]	IC50 (MS751 cells; [6]) [µM]
CC(O)c1ccc(-c2cc(Cl)c3c(c2)CC(CNC(=O)/C=C/c2cccnn2)O3)s1 (stereo not drawn) [Compound 307]	0.1 to 5	0.1 to 5	0.1 to 5	–	–	–
CC(=O)c1ccc(-c2cc(Cl)c3c(c2)CC(CNS(=O)(=O)/C=C/c2cccnc2)O3)s1 (stereo not drawn) [Compound 310, (E)-N-((5-(5-acetylthiophen-2-yl)-7-chloro-2,3-dihydrobenzofuran-2-yl)methyl)-2-(pyridine-3-yl) ethenesulphonamide]	–	–	–	5 to 30	> 30	> 30
CC(=O)c1ccc(-c2cc(Cl)c3c(c2)CC(CNC(=O)/C=C/c2ccc(O)nc2)O3)s1 (stereo not drawn) [Compound 311, (E)-N-((5-(5-acetylthiophen-2-yl)-7-chloro-2,3-dihydrobenzofuran-2-yl)methyl)-3-(6-hydroxypyridin-3-yl)acrylamide]	–	–	–	> 30	> 30	> 30
CC(=O)c1ccc(-c2cc(Cl)c3c(c2)CC(CNC(=O)/C=C/c2cccnn2)O3)o1 (stereo not drawn) [Compound 314, (E)-N-((5-(5-acetylfuran-2-yl)-7-chloro-2,3-dihydrobenzofuran-2-yl)methyl)-3-(pyridazin-3-yl)acrylamide]	0.1 to 5	0.1 to 5	0.1 to 5	–	–	–
CC(=O)Nc1ccc(/C=C/C(=O)NCC2Cc3cc(-c4ccc(C(C)=O)s4)cc(Cl)c3O2)cn1 (stereo not drawn) [Compound 315, (E)-3-(6-acetamidopyridin-3-yl)-N-((5-(5-acetylthiophen-2-yl)-7-chloro-2,3-dihydrobenzofuran-2-yl)methyl)acrylamide]	–	–	–	> 30	> 30	> 30
CC(=O)c1ccc(-c2cc(Cl)c3c(c2)CC(CNC(=O)/C=C/c2ccc(N)nc2)O3)o1 (stereo not drawn) [Compound 319, (E)-N-((5-(5-acetylfuran-2-yl)-7-chloro-2,3-dihydrobenzofuran-2-yl)methyl)-3-(6-aminopyridine-3-yl)acrylamide]	< 0.1	5 to 30	0.1 to 5	–	–	–
CC(C)(O)c1ccc(-c2cc(Cl)c3c(c2)CC(CNC(=O)/C=C/c2cccnn2)O3)s1 (stereo not drawn) [Compound 320, (E)-N-((7-chloro-5-(5-(2-hydroxypropan-2-yl)thiophen-2-yl)-2,3-dihydrobenzofuran-2-yl)methyl)-3-(pyridazin-3-yl)acrylamide]	0.1 to 5	0.1 to 5	0.1 to 5	–	–	–
CC(C)(O)c1ccc(-c2cc(Cl)c3c(c2)CC(CNC(=O)/C=C/c2ccc(N)nc2)O3)s1 (stereo not drawn) [Compound 321, (E)-3-(6-aminopyridin-3-yl)-N-((7-chloro-5-(5-(2-hydroxypropan-2-yl)thiophen-2-yl)-2,3-dihydrobenzofuran-2-yl)methyl)acrylamide]	< 0.1	5 to 30	0.1 to 5	–	–	–
CC(=O)c1sc(-c2cc(Cl)c3c(c2)CC(CNC(=O)/C=C/c2ccc(N)nc2)O3)c(C)c1C (stereo not drawn) [Compound 322]	< 0.1	5 to 30	< 0.1	–	–	–
Nc1ccc(/C=C/C(=O)NCC2Cc3cc(-c4cnc(C(=O)N5CCOCC5)nc4)cc(Cl)c3O2)cn1 (stereo not drawn) [Compound 323, (E)-3-(6-aminopyridin-3-yl)-N-((7-chloro-5-(2-(morpholine-4-carbonyl)pyrimidin-5-yl)-2,3-dihydrobenzofuran-2-yl)methyl)acrylamide]	0.1 to 5	5 to 30	0.1 to 5	–	–	–
CN(C)C(=O)c1ccc(-c2cc(Cl)c3c(c2)CC(CNC(=O)/C=C/c2ccc(N)nc2)O3)o1 (stereo not drawn) [Compound 324, (E)-5-(2-((3-(6-Aminopyridin-3-yl)acrylamido)methyl)-7-chloro-2,3-dihydrobenzofuran-5-yl)-N,N-dimethylfuran-2-carboxamide]	< 0.1	5 to 30	< 0.1	–	–	–
Cc1onc(-c2ccccc2)c1-c1cc(Cl)c2c(c1)CC(CNC(=O)/C=C/c1ccc(N)nc1)O2 (stereo not drawn) [Compound 325, (E)-3-(6-aminopyridin-3-yl)-N-((7-chloro-5-(5-methyl-3-phenylisoxazol-4-yl)-2,3-dihydrobenzofuran-2-yl)methyl)acrylamide]	< 0.1	0.1 to 5	0.1 to 5	–	–	–
Nc1ccc(/C=C/C(=O)NCC2Cc3cc(-c4cnc(C(=O)N5CCOCC5)c(Cl)c4)cc(Cl)c3O2)cn1 (stereo not drawn) [Compound 326, (E)-3-(6-aminopyridin-3-yl)-N-((7-chloro-5-(5-chloro-6-(morpholine-4-carbonyl)pyridin-3-yl)-2,3-dihydrobenzofuran-2-yl)methyl)acrylamide]	< 0.1	5 to 30	0.1 to 5	–	–	–
Cc1noc(-c2ccccc2)c1-c1cc(Cl)c2c(c1)CC(CNC(=O)/C=C/c1ccc(N)nc1)O2 (stereo not drawn) [Compound 327, (E)-3-(6-aminopyridin-3-yl)-N-((7-chloro-5-(3-methyl-5-phenylisoxazol-4-yl)-2,3-dihydrobenzofuran-2-yl)methyl)acrylamide]	< 0.1	0.1 to 5	0.1 to 5	–	–	–
Nc1ccc(/C=C/C(=O)NCC2Cc3cc(-c4cc(F)c(C(=O)N5CCOCC5)cc4F)cc(Cl)c3O2)cn1 (stereo not drawn) [Compound 328, (E)-3-(6-Aminopyridin-3-yl)-N-((7-chloro-5-(2,5-difluoro-4-(morpholine-4-carbonyl)phenyl)-2,3-dihydrobenzofuran-2-yl)methyl)acrylamide]	< 0.1	0.1 to 5	< 0.1	–	–	–
Nc1ccc(/C=C/C(=O)NCC2Cc3cc(-c4cnc(C(=O)N5CCOCC5)c(F)c4)cc(Cl)c3O2)cn1 (stereo not drawn) [Compound 329, (E)-3-(6-Aminopyridin-3-yl)-N-((7-chloro-5-(5-fluoro-6-(morpholine-4-carbonyl)pyridin-3-yl)-2,3-dihydrobenzofuran-2-yl)methyl)acrylamide]	< 0.1	5 to 30	0.1 to 5	–	–	–
Nc1ccc(/C=C/C(=O)NCC2Cc3cc(-c4ncc(C(=O)N5CCOCC5)cn4)cc(Cl)c3O2)cn1 (stereo not drawn) [Compound 330, (E)-3-(6-Aminopyridin-3-yl)-N-((7-chloro-5-(5-(morpholine-4-carbonyl)pyrimidin-2-yl)-2,3-dihydrobenzofuran-2-yl)methyl)acrylamide]	< 0.1	5 to 30	< 0.1	–	–	–
Nc1ccc(/C=C/C(=O)NCC2Cc3cc(-c4ccc(C(=O)N5CCOCC5)nn4)cc(Cl)c3O2)cn1 (stereo not drawn) [Compound 331, (E)-3-(6-Aminopyridin-3-yl)-N-((7-chloro-5-(6-(morpholine-4-carbonyl)pyridazin-3-yl)-2,3-dihydrobenzofuran-2-yl)methyl)acrylamide]	< 0.1	5 to 30	0.1 to 5	–	–	–
Nc1ccc(/C=C/C(=O)NCC2Cc3cc(-c4cc(F)c(C(=O)N5CCOCC5)c(F)c4)cc(Cl)c3O2)cn1 (stereo not drawn) [Compound 332, (E)-3-(6-Aminopyridin-3-yl)-N-((7-chloro-5-(3,5-difluoro-4-(morpholine-4-carbonyl)phenyl)-2,3-dihydrobenzofuran-2-yl)methyl)acrylamide]	< 0.1	0.1 to 5	< 0.1	–	–	–
Nc1ccc(/C=C/C(=O)NCC2Cc3cc(-c4ccc(C(=O)N5CCOCC5)cn4)cc(Cl)c3O2)cn1 (stereo not drawn) [Compound 333, (E)-3-(6-Aminopyridin-3-yl)-N-((7-chloro-5-(5-(morpholine-4-carbonyl)pyridin-2-yl)-2,3-dihydrobenzofuran-2-yl)methyl)acrylamide]	< 0.1	5 to 30	< 0.1	–	–	–
O=C(/C=C/C1Cc2cc(-c3ccc(C(=O)N4CCOCC4)cc3)cc(Cl)c2O1)NCc1cccnc1 (stereo not drawn) [Compound 334, (E)-3-(7-Chloro-5-(4-(morpholine-4-carbonyl)phenyl)-2,3-dihydrobenzofuran-2-yl)-N-(pyridin-3-ylmethyl)acrylamide]	0.1 to 5	5 to 30	0.1 to 5	–	–	–
Nc1ccc(/C=C/C(=O)NCC2Cc3cc(-c4cc(F)c(C(=O)N5CC(F)(F)C5)c(F)c4)cc(Cl)c3O2)cn1 (stereo not drawn) [Compound 335, (E)-3-(6-aminopyridin-3-yl)-N-((7-chloro-5-(4-(3,3-difluoroazetidine-1-carbonyl)-3,5-difluorophenyl)-2,3-dihydrobenzofuran-2-yl)methyl)acrylamide]	< 0.1	0.1 to 5	< 0.1	–	–	–
Nc1ccc(/C=C/C(=O)NCC2Cc3cc(-c4ccc(C(=O)N5CC(F)(F)C5)c(F)c4)cc(Cl)c3O2)cn1 (stereo not drawn) [Compound 336, (E)-3-(6-aminopyridin-3-yl)-N-((7-chloro-5-(4-(3,3-difluoroazetidine-1-carbonyl)-3-fluorophenyl)-2,3-dihydrobenzofuran-2-yl)methyl)acrylamide]	< 0.1	0.1 to 5	< 0.1	–	–	–
Nc1ccc(/C=C/C(=O)NCC2Cc3cc(-c4ccc(C(=O)N5CC(F)(F)C5)c(F)c4F)cc(Cl)c3O2)cn1 (stereo not drawn) [Compound 337]	< 0.1	0.1 to 5	< 0.1	–	–	–
Nc1ccc(/C=C/C(=O)NCC2Cc3cc(-c4ccc(C(=O)N5CC(F)(F)C5)cn4)cc(Cl)c3O2)cn1 (stereo not drawn) [Compound 338, (E)-3-(6-aminopyridin-3-yl)-N-((7-chloro-5-(5-(3,3-difluoroazetidine-1-carbonyl)pyridin-2-yl)-2,3-dihydrobenzofuran-2-yl)methyl)acrylamide]	< 0.1	0.1 to 5	< 0.1	–	–	–
Nc1ccc(/C=C/C(=O)NCC2Cc3cc(-c4ccc(C(=O)N5CCCCC5)cn4)cc(Cl)c3O2)cn1 (stereo not drawn) [Compound 339, (E)-3-(6-aminopyridin-3-yl)-N-((7-chloro-5-(5-(piperidine-1-carbonyl)pyridin-2-yl)-2,3-dihydrobenzofuran-2-yl)methyl)acrylamide]	< 0.1	5 to 30	0.1 to 5	–	–	–
